Results on 2 molecules are retold here after article PMC7414031, “Correlation between hemolytic activity, cytotoxicity and systemic in vivo toxicity of synthetic antimicrobial peptides” (Scientific Reports, 2020).

Series [1] is described as follows: in vitro. Particulars: human. It counts as cell-based, human. An outline of the steps:
(§1)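 Washed heparinized erythrocytes (~5 × 10^8 RBC/mL in PBS) incubated 1 h at 37 °C with peptides in serial 1:1 dilutions (150 to 1.2 µM final). Haemoglobin release read at 405 nm in supernatant; % haemolysis relative to 1% Triton X-100 (100%) and PBS diluent (0%).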

A further series relates to human erythrocytes. The series is described as follows: in vitro. Particulars: for IC10 haemolysis: human erythrocytes; for IC50: red cells of human. It counts as cell-based. Summed up: as §1
The nature of series [2]: in vitro. Format: cell-based, dog. Particulars: dog. Summed up:
as §1

The next series has as its system canine erythrocytes. In words: in vitro. Format: cell-based, dog. Particulars: for IC10 haemolysis: canine erythrocytes; for IC50: red cells of canine. Summed up:
as §1

The nature of series [3]: in vitro. Particulars: Sprague-Dawley, rat. Format: cell-based, rat (Sprague–Dawley). An outline of the steps:
as §1

Another series concerns rat erythrocytes. The series is described as follows: in vitro. It counts as cell-based, rat (Sprague–Dawley). Particulars: for IC10 haemolysis: rat erythrocytes; for IC50: red cells of rat. An outline of the steps: as §1
Series [4] in a line: in vitro. It counts as cell-based, bovine. Particulars: bovine. Summed up:
as §1

In the next series the test system is HaCaT cells. It counts as cell-based, human. Particulars: 1 h. The protocol: (§2) An immortalised human keratinocyte (HaCaT) cell line (Gift from David Gram Naym at Bispebjerg Hospital, Denmark), a human liver cancer cell line (HepG2; ATCC HB-8065) and a human epithelial cervical cancer cell line (HeLa; ATCC CCL-2) were cultured to ∼90% confluence after 21–25 h of growth under standard conditions (5% CO2 at 37 °C). Cells were cultured in Dulbecco’s Modified Eagle’s Medium supplemented with 10% (v/v) fetal bovine serum (FBS). All culture media were supplemented with penicillin (100 IU/mL) and streptomycin (100 μg/mL). All cell media and supplements were obtained from Sigma-Aldrich (St. Louis, MO, United States). The 96-well plates were supplied by Corning Costar (Sigma-Aldrich, Brøndby, Denmark). Cell viability assessment was performed on cell monolayers grown to ∼90% confluence in 96-well plates by using the MTS/PMS assay as previously described. Briefly, the adhered cells were washed with PBS solution (37 °C) (ThermoFisher Scientific, Roskilde) and exposed for 1 h at 37 °C to 100 μL of peptides dissolved in the medium also used for culturing of the cell line (at concentrations in the range 0–1,000 μg/mL). The cells were subsequently washed twice with 37 °C PBS and then 100 μL of an MTS/PMS solution in media, consisting of 240 μg/mL MTS (Promega, Madison, WI, United States) and 2.4 mg/mL PMS (Promega, Madison, WI, United States), was added to the cells, which then were incubated for 1 h at 37 °C protected from light. A plate reader (SpectraMax i3X; Molecular devices, San Jose, CA) was used to measure the absorbance at 492 nm. The relative viability was calculated by using 0.2% (w/v) sodium dodecyl sulfate (SDS) as the positive control, while cells exposed to medium without test compound were used as the negative control.

In another series the test system is HeLa cells. Format: cell-based, human. Particulars: 1 h. The protocol: as §2
A short description of series [5]: Dose-ranging intravenous toxicity study in rats. Format: in vivo, rat (WistarHan). Particulars: rat. The protocol: All animals were injected with a single dose of 0.5 mL (2 mL/kg body weight) and it was slowly administered over 2 min and 10 s. Shorter cationic tripeptides[4] and synthetic AMPs[72] have previously been evaluated employing the intravenous route. It was an interesting observation that the animals survived the systemic tail vein injection seemingly unaffected. This observation is in contrast to related synAMPs investigated as intravenous antibiotics which induced acute toxicity and paralysis at higher concentrations.

Series [6] relates to Staphylococcus pseudintermedius. Particulars: cited from earlier work; for S.p. MIC: Staphylococcus pseudintermedius, Table S5, in µM.
For series [7] the following is noted: at in vivo dosing concentrations.
Procedure: (§3) To further address the actual correlation of the in vitro observations to an in vivo situation, three compounds were selected for animal studies. […] Peptides where chosen to include compounds with ranging antibacterial activity, residue composition, hydrophobicity and in vitro mammalian toxicity, deliberately excluding compounds too hydrophobic and too toxic (50% > lysis at 150 µM in vitro against rats and human). […] All the compounds were tested at the same concentrations 0, 0.01 and 1.0 mg/kg rat.
(§4) The compounds were formulated in sterile PBS (tablets, Medicago, Sweden), sonicated and sterile filtered through a Millex-GV filter (0.22 µm pore size, Ø 13 mm, Merck) before use. […] Doses were 0 (vehicle control), 0.01 and 1.0 mg/kg rat).
The subject of the next series is Staphylococcus aureus. More on the design: method as in PMID 30842436. Particulars: cited from earlier work.
In another series the test system is Pseudomonas aeruginosa. More on the design: method as in PMID 30842436. Particulars: cited from earlier work.
Another series relates to bovine erythrocytes. The series is described as follows: in vitro. It counts as cell-based. Particulars: bovine erythrocytes. An outline of the steps:
as §1

Another series concerns HepG2 cells. Format: cell-based, human. Particulars: 1 h. The protocol: as §2
Another series in a line: physchem. Particulars: PBS.

Values after ≈ are worked out from the molar mass of the structure shown. Peptide text beside a SMILES is read from it.

Procedure for physchem: as §3, §4

One may read the IC50 as the concentration needed to halve the response being measured. Low readings indicate inhibition by little substance, high ones a need for much substance. As to `CC(C)C[C@@H](NC(=O)[C@@H](Cc1ccc2ccccc2c1)NC(=O)[C@@H](Cc1ccccc1)NC(=O)[C@H](N)Cc1ccc2ccccc2c1)C(=O)N[C@@H](CCCCN)C(=O)N[C@@H](CCCCN)C(=O)N[C@@H](CCCCN)C(N)=O` [Compound 4, (2-Nal)Ala-Phe-(2-Nal)Ala-Leu-Lys-Lys-Lys] (HELM PEPTIDE1{[N[C@H](Cc1ccc2ccccc2c1)C(=O)[*:2]].[dF].[O=C([C@@H](Cc1ccc2ccccc2c1)N[*:1])[*:2]].[dL].K.K.K.[am]}$$$$V2.0), the hemolysis at 1 h, 150 µM in “in vitro [1]”, in “in vitro [2]”, in “in vitro [3]” and in “in vitro [4]” was less than 8% in each case. In addition, the IC10 haemolysis in the series with human erythrocytes, in the series with canine erythrocytes and in the series with rat erythrocytes was greater than 150 µM throughout. Further, the IC50 was greater than 150 µM in the series with human erythrocytes; greater than 150 µM in the series on canine erythrocytes; greater than 150 µM in the series on rat erythrocytes; 433 µM in the series on HaCaT cells; 783 µM with HeLa cells. Besides, the “Clinical signs of discomfort after injection” value in [5] (i.v. tail vein, high dose (1 mg/mL), two animals, after initial 30 min recovery) is “less mobility and reactivity to stimuli”. Also, the “Release of haemoglobin in vivo” value in series [5] (i.v., high dose, 3 h) was “slightly elevated release of haemoglobin”. In addition, the “Adverse effects at 8 h after injection” value in series [5] (i.v., high dose, 8 h) is “no adverse effects were observed”. In addition, the Bilirubin concentration result in [5] (i.v., plasma 24 h) is recorded as “no elevated concentration was observed”. Also, the “AST and ALT concentration” value in series [5] (i.v., plasma 24 h, high dose for 4) was “slight increase of both AST and ALT”. For the same molecule, the “S.p. MIC” value in [6] is recorded as 15.1 µM. Further, the “MIC against Staphylococcus pseudintermedius” value in [6] is on record as 16 µg/mL (≈ 15.1 µM). The “Solubility in PBS (in words)” value in series [7] is “freely soluble”. In addition, in the series on Staphylococcus aureus, the “MIC against Staphylococcus aureus” value is listed as 32 µg/mL (≈ 30.3 µM). Moreover, the “MIC against Pseudomonas aeruginosa” value in the series with Pseudomonas aeruginosa is greater than 64 µg/mL.
The solubility is how much of the substance goes into solution per volume. Read a low solubility as a poorly soluble substance. For the molecule `CC(C)C[C@@H](NC(=O)[C@H](CCCCN)NC(=O)[C@H](CCCCN)NC(=O)[C@@H](N)CCCCN)C(=O)N[C@H](Cc1cccc2ccccc12)C(=O)N[C@H](Cc1ccccc1)C(=O)N[C@H](Cc1cccc2ccccc12)C(N)=O` [Compound 11, Lys-Lys-Lys-Leu-(1-Nal)Ala-Phe-(1-Nal)Ala] (HELM PEPTIDE1{K.K.K.[dL].[O=C([C@@H](Cc1cccc2ccccc12)N[*:1])[*:2]].[dF].[O=C([C@@H](Cc1cccc2ccccc12)N[*:1])[*:2]].[am]}$$$$V2.0), the hemolysis at 1 h, 150 µM in the series “in vitro [1]” was found to be 33.3%; in the series “in vitro [2]”, 40.7%; in “in vitro [3]” it was 11.3%; in the series “in vitro [4]” it was 17.4%. Also, the IC10 haemolysis with human erythrocytes stood at 32.8 µM; in the series with canine erythrocytes, 30.4 µM; in the series with rat erythrocytes, 128.2 µM; in the series on bovine erythrocytes, 89.2 µM. Moreover, the IC50 in the series on human erythrocytes is greater than 150 µM; in the series with canine erythrocytes, greater than 150 µM; with rat erythrocytes, greater than 150 µM; in the series on HaCaT cells, 517 µM; in the series on HeLa cells, 233 µM; with HepG2 cells, 233 µM. In series [5] (1 mg/mL in PBS injected, assuming 17 mL blood volume for a 250 g rat), the “Maximal serum concentration (calculated from dose)” value is given as 15 µM. In series [5] (in vivo, iv), the “Whole blood haemolysis in vivo” value is listed as “not observed in vivo”. Also, the “S.p. MIC” value in series [6] is reported as 1.9 µM. The “MIC against Staphylococcus pseudintermedius” value in series [6] was 2 µg/mL (≈ 1.89 µM). Besides, in series [7], the “Solubility in PBS (in words)” value is “required mild heating and sonication at the highest concentration”. The “MIC against Staphylococcus aureus” value in the series on Staphylococcus aureus is on record as 8 µg/mL (≈ 7.57 µM). The “MIC against Pseudomonas aeruginosa” value with Pseudomonas aeruginosa is 8 µg/mL (≈ 7.57 µM). Besides, the solubility in “physchem” came to 1000 µg/mL (≈ 947 µM).
